This experiment relates to MYC mRNA expression in MV-4-11 xenograft tumor. In words: PKPD of compound 4009 in MV-4-11 subcutaneous xenograft (MYC mRNA by RT-qPCR). The format is in vivo, BALB/c nude mice. The settings on record: 15 mg/kg single dose intragastric; 1, 2, 4, 6, 8, 24 h. The method, then:
Cell Culture MV-4-11 (purchased from ATCC, CRL-9591) cells were single-layer-cultured in vitro, culture condition is IMDM medium supplemented with 10% heat-inactivated fetal bovine serum and 1% penicillin-streptomycin double antibody, at 37° C., 5% CO2. According to the growth of the cells, the treatment was passaged twice a week. When the cells are in the exponential growth phase, the cells are collected, counted, and inoculated.
Experimental protocol: 0.2 mL of cell suspension containing about […] cells (cell suspended in IMDM medium and added with 50% Matrigel) was inoculated subcutaneously into the right back of each mouse. […] Grouping method: animals were weighed before dosing and tumor volume was measured. […]
Preparation of cDNA: The concentration of RNA (NanaDrop2000) was determined, 2 μg RNA was used as a template for reverse transcription, and cDNA preparation (RT-PCR) was performed using a High Capacity cDNA Reverse Transcription Kit.
Quantitative amplification of the target gene: Real-time qPCR amplification was performed using TaqMan fluorescent probe and cDNA as a template. […] The reaction system was separately added to a 384-well plate, and each sample of the target gene and the comparative gene was measured for three replicate wells, and the reaction was run on a prepared 384-well plate instrument (ABI ViiA7).
Background: Quantitative PCR measures a nucleic acid by following its amplification.

`CCS(=O)(=O)Cc1ccc2c(c1)-c1cn(C)c(=O)cc1CN=C2c1ccc(F)cc1` [Compound 4009, 7-(4-fluorophenyl)-2-methyl-10-(ethylsulfonemethyl)-2H-benzo[c]pyrido[3,4-e]azepin-3(5H)-ketone]: the “inhibition of the expression level of MYC mRNA in the tumor versus concentration of the drug in the tumor” value is reported as “good correlation”.

The record behind these values is US20190284192A1, “NITROGENOUS MACROCYCLIC COMPOUND, PREPARATION METHOD THEREFOR, PHARMACEUTICAL COMPOSITION AND APPLICATION THEREOF” (LUOXIN PHARMACEUTICAL (SHANGHAI) CO., LTD., priority 2016, published 2019).
